{
  "source": "patent US12357619B2",
  "about": "“Noradrenergic and specific serotonergic anxiolytic and antidepressant, method for the production and use thereof” (ALLA CHEM, LLC, priority 2020, dated 2025)",
  "key": {"[1]": {"target": "T1, Adrenergic α2B (Homo sapiens, UniProt P18089)", "T1 sequence (P18089 1-450)": "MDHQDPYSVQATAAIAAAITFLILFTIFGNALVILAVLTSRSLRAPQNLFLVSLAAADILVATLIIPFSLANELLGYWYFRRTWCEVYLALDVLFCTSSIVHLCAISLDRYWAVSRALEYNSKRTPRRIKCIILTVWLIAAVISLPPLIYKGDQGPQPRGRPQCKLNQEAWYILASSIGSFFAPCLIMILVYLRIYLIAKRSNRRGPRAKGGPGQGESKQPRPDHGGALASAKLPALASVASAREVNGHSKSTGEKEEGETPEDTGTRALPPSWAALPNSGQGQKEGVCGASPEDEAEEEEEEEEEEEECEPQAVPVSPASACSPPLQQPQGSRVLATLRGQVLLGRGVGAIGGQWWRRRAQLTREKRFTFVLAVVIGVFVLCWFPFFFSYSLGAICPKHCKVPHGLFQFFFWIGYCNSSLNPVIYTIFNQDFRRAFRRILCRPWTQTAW", "assay": "Receptor activities, Ki (Table 1)", "type": "binding"}, "[2]": {"target": "T2, Serotonin 5-HT1A (Homo sapiens, UniProt P08908)", "T2 sequence (P08908 1-422)": "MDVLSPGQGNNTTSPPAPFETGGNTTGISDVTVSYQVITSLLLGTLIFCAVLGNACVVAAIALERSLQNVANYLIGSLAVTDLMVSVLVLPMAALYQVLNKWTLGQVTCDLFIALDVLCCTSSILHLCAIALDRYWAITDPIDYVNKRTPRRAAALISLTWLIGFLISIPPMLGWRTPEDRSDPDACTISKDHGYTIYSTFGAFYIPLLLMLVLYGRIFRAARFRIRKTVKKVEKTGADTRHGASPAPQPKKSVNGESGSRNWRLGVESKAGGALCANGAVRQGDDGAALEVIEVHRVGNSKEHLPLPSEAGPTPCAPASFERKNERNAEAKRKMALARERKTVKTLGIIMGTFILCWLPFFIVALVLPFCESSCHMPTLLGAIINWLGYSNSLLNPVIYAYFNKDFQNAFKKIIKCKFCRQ", "assay": "Receptor activities, Ki (Table 1)", "type": "binding"}, "[3]": {"target": "T3, Serotonin 5-HT2C (Homo sapiens, UniProt P28335)", "T3 sequence (P28335 33-458)": "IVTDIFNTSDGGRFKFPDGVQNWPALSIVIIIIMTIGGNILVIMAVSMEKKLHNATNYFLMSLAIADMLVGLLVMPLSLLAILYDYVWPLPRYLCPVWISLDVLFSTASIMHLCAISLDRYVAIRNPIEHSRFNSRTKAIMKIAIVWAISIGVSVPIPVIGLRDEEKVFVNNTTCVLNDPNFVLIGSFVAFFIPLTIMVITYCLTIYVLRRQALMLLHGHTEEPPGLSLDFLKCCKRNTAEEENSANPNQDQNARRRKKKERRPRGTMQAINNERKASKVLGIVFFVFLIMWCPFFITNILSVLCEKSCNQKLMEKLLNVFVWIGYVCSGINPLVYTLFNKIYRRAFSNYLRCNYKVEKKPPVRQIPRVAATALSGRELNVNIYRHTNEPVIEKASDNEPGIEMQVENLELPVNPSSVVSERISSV", "assay": "Receptor activities, Ki (Table 1)", "type": "binding"}, "[4]": {"system": "people with generalized anxiety disorder (GAD)", "assay": "Randomized double-blind placebo-controlled GAD study, Hamilton depression scale (HAMD)", "type": "in vivo, human", "settings": "after 8 weeks", "description": "(§1) Example 12. Efficacy and safety study of the oral drug of this invention made as a pharmaceutical composition of this invention in capsules. […] During the study, 3 scheduled visits were conducted in Week 2, Week 4, and Week 8 to assess the effectiveness and safety of the therapy as well as drug inventory and administration. During all of those visits, the patient's diary was checked, a drug inventory was made and the patients' compliance was assessed. In addition, adverse events, concomitant therapy, and vital signs were evaluated, urine drug screen was performed, and assessments using Hamilton Anxiety Rating Scale (HARS), Hamilton Depression Scale (HAMD), Clinical Global Impression-Severity (CGI-S), Clinical Global Impression-Improvement (CGI-I), and Visual Analog Scale (VAS) were made; women of child-bearing potential will take a urine pregnancy test. Also, during visits at Week 4 and Week 8 a physical examination was performed, body weight was measured, an ECG was performed in 12 leads and blood and urine samples were obtained for laboratory tests, namely: urinalysis and biochemical blood analysis, PK analysis before and 1 hour after taking the study drug (SD), and urinalysis. At Week 4, a blood sample was also obtained for genotyping by CYP2D6. […] During this time, a possible development of SD withdrawal syndrome against the background of placebo was evaluated. […]"}, "[5]": {"system": "people with generalized anxiety disorder (GAD)", "assay": "Randomized double-blind placebo-controlled GAD study, clinical global impression-severity (CGI-S)", "type": "in vivo, human", "settings": "after 8 weeks", "description": "as §1"}, "[6]": {"system": "healthy volunteers", "assay": "Safety, single oral administration of capsules in healthy volunteers (Example 10)", "type": "in vivo, human", "description": "Example 10. Clinical study of the safety of the oral drug of this invention. An open-label clinical trial of the pharmacokinetics of the antipsychotic drug made as a pharmaceutical composition of this invention in capsules, was conducted with a single oral administration in 32 healthy volunteers at doses of 2 mg/day (cohort 1, 8 volunteers), 4 mg/day (cohort 1, 8 volunteers), 10 mg/day (cohort 1, 8 volunteers), and 20 mg/day (cohort 1, 8 volunteers), expressed as base A, in accordance with the recommendations of “Good clinical practice (GCP)” on physically and mentally healthy men aged 20-50 years with a body mass index of […]."}, "[7]": {"settings": "single doses of 2, 4, 10, and 20 mg, healthy volunteers"}},
  "data": [
    {"smiles": "Cc1ccc2c(c1)c1c(n2CCc2ccccc2)CCN(C)C1.Cl", "note": "[A•HCl, 2,8-dimethyl-5-(2-phenylethyl)-2,3,4,5-tetrahydro-1H-pyrido[4,3-b]indole hydrochloride]", "values": [
      {"measurement": "Ki", "setting": "[1]", "result": 0.41, "unit": "nM"},
      {"measurement": "Ki", "setting": "[2]", "result": 61, "unit": "nM"},
      {"measurement": "Ki", "setting": "[3]", "result": 1.17, "unit": "nM"},
      {"measurement": "HAMD average change (standard error)", "setting": "[4]; 40 mg, N = 42, average at Week 0 10.9", "result": "−5.2 (0.57)"},
      {"measurement": "HAMD average change (standard error)", "setting": "[4]; 60 mg, N = 44, average at Week 0 10.9", "result": "−4.4 (0.56)"},
      {"measurement": "CGI-S average change (standard error)", "setting": "[5]; 40 mg, N = 42, average at Week 0 4.24", "result": "−1.34 (0.19)"},
      {"measurement": "CGI-S average change (standard error)", "setting": "[5]; 60 mg, N = 44, average at Week 0 4.28", "result": "−1.21 (0.19)"},
      {"measurement": "Side effects observed", "setting": "[6]; 20-mg cohort, single dose", "result": "drowsiness, agitation and paresthesia"},
      {"measurement": "Effect on the parameters of plasma and urine", "setting": "[6]; [7]", "result": "neither significantly affect the parameters of plasma and urine"},
      {"measurement": "Tolerability", "setting": "[6]; [7]", "result": "well tolerated"}
    ]}
  ]
}
